Assay results: PubChem BioAssay (NCI)
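These data come from cells grown in 96-well plates and exposed to compound for 48 hours at five concentrations. GI50 = concentration required for 50% inhibition of growth. TGI: concentration producing complete growth inhibition.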

Columns and labels:
Assay in all cases: DTP human tumour cell line panel, 48 h
786-0 renal = test system: 786-0 renal
A549 NSCLC = test system: A549 NSCLC
ACHN renal = test system: ACHN renal
BT-549 breast = test system: BT-549 breast
CAKI-1 renal = test system: CAKI-1 renal
CCRF-CEM leukemia = test system: CCRF-CEM leukemia
COLO 205 colon = test system: COLO 205 colon
DU-145 prostate = test system: DU-145 prostate
HCC-2998 colon = test system: HCC-2998 colon
HCT-116 colon = test system: HCT-116 colon
HCT-15 colon = test system: HCT-15 colon
HL-60(TB) leukemia = test system: HL-60(TB) leukemia
HOP-62 NSCLC = test system: HOP-62 NSCLC
HOP-92 NSCLC = test system: HOP-92 NSCLC
HS 578T breast = test system: HS 578T breast
HT29 colon = test system: HT29 colon
IGROV1 ovarian = test system: IGROV1 ovarian
K-562 leukemia = test system: K-562 leukemia
KM12 colon = test system: KM12 colon
LOX IMVI melanoma = test system: LOX IMVI melanoma
M14 melanoma = test system: M14 melanoma
MALME-3M melanoma = test system: MALME-3M melanoma
MCF7 breast = test system: MCF7 breast
MDA-MB-231 breast = test system: MDA-MB-231 breast
MDA-MB-435 = test system: MDA-MB-435
MOLT-4 leukemia = test system: MOLT-4 leukemia
NCI-H226 lung = test system: NCI-H226 lung
NCI-H23 lung = test system: NCI-H23 lung
NCI-H460 lung = test system: NCI-H460 lung
NCI-H522 lung = test system: NCI-H522 lung
NCI/ADR-RES ovarian = test system: NCI/ADR-RES ovarian
OVCAR-3 ovarian = test system: OVCAR-3 ovarian
OVCAR-4 ovarian = test system: OVCAR-4 ovarian
OVCAR-5 ovarian = test system: OVCAR-5 ovarian
OVCAR-8 ovarian = test system: OVCAR-8 ovarian
PC-3 prostate = test system: PC-3 prostate
RPMI-8226 leukemia = test system: RPMI-8226 leukemia
RXF 393 renal = test system: RXF 393 renal
SF-268 CNS = test system: SF-268 CNS
SF-295 CNS = test system: SF-295 CNS
SF-539 CNS = test system: SF-539 CNS
SK-MEL-2 melanoma = test system: SK-MEL-2 melanoma
SK-MEL-28 melanoma = test system: SK-MEL-28 melanoma
SK-MEL-5 melanoma = test system: SK-MEL-5 melanoma
SK-OV-3 ovarian = test system: SK-OV-3 ovarian
SN12C renal = test system: SN12C renal
SNB-19 CNS = test system: SNB-19 CNS
SNB-75 CNS = test system: SNB-75 CNS
SR leukemia = test system: SR leukemia
SW-620 colon = test system: SW-620 colon
T-47D breast = test system: T-47D breast
TK-10 renal = test system: TK-10 renal
U251 CNS = test system: U251 CNS
UACC-257 melanoma = test system: UACC-257 melanoma
UACC-62 melanoma = test system: UACC-62 melanoma
UO-31 renal = test system: UO-31 renal

## CCOC(=O)Nc1nc2ccc(OC)cc2s1
786-0 renal
  GI50: > 100 µM
  TGI: > 100 µM
A549 NSCLC
  GI50: > 100 µM
  TGI: > 100 µM
ACHN renal
  GI50: > 100 µM
  TGI: > 100 µM
BT-549 breast
  GI50: > 100 µM
  TGI: > 100 µM
CAKI-1 renal
  GI50: > 100 µM
  TGI: > 100 µM
CCRF-CEM leukemia
  GI50: > 100 µM
  TGI: > 100 µM
COLO 205 colon
  GI50: > 100 µM
  TGI: > 100 µM
DU-145 prostate
  GI50: > 100 µM
  TGI: > 100 µM
HCC-2998 colon
  GI50: > 100 µM
  TGI: > 100 µM
HCT-116 colon
  GI50: > 100 µM
  TGI: > 100 µM
HCT-15 colon
  GI50: > 100 µM
  TGI: > 100 µM
HL-60(TB) leukemia
  GI50: > 100 µM
  TGI: > 100 µM
HOP-62 NSCLC
  GI50: > 100 µM
  TGI: > 100 µM
HOP-92 NSCLC
  GI50: > 100 µM
  TGI: > 100 µM
HS 578T breast
  GI50: > 100 µM
  TGI: > 100 µM
HT29 colon
  GI50: > 100 µM
  TGI: > 100 µM
IGROV1 ovarian
  GI50: > 100 µM
  TGI: > 100 µM
K-562 leukemia
  GI50: > 100 µM
  TGI: > 100 µM
KM12 colon
  GI50: > 100 µM
  TGI: > 100 µM
LOX IMVI melanoma
  GI50: > 100 µM
  TGI: > 100 µM
M14 melanoma
  GI50: > 100 µM
  TGI: > 100 µM
MALME-3M melanoma
  GI50: > 100 µM
  TGI: > 100 µM
MCF7 breast
  GI50: > 100 µM
  TGI: > 100 µM
MDA-MB-231 breast
  GI50: > 100 µM
  TGI: > 100 µM
MDA-MB-435
  GI50: 4.18 µM
  TGI: > 100 µM
MOLT-4 leukemia
  GI50: > 100 µM
  TGI: > 100 µM
NCI-H226 lung
  GI50: > 100 µM
  TGI: > 100 µM
NCI-H23 lung
  GI50: > 100 µM
  TGI: > 100 µM
NCI-H460 lung
  GI50: > 100 µM
  TGI: > 100 µM
NCI-H522 lung
  GI50: > 100 µM
  TGI: > 100 µM
NCI/ADR-RES ovarian
  GI50: > 100 µM
  TGI: > 100 µM
OVCAR-3 ovarian
  GI50: > 100 µM
  TGI: > 100 µM
OVCAR-4 ovarian
  GI50: > 100 µM
  TGI: > 100 µM
OVCAR-5 ovarian
  GI50: > 100 µM
  TGI: > 100 µM
OVCAR-8 ovarian
  GI50: > 100 µM
  TGI: > 100 µM
PC-3 prostate
  GI50: > 100 µM
  TGI: > 100 µM
RPMI-8226 leukemia
  GI50: > 100 µM
  TGI: > 100 µM
RXF 393 renal
  GI50: > 100 µM
  TGI: > 100 µM
SF-268 CNS
  GI50: > 100 µM
  TGI: > 100 µM
SF-295 CNS
  GI50: > 100 µM
  TGI: > 100 µM
SF-539 CNS
  GI50: > 100 µM
  TGI: > 100 µM
SK-MEL-2 melanoma
  GI50: > 100 µM
  TGI: > 100 µM
SK-MEL-28 melanoma
  GI50: > 100 µM
  TGI: > 100 µM
SK-MEL-5 melanoma
  GI50: > 100 µM
  TGI: > 100 µM
SK-OV-3 ovarian
  GI50: > 100 µM
  TGI: > 100 µM
SN12C renal
  GI50: > 100 µM
  TGI: > 100 µM
SNB-19 CNS
  GI50: > 100 µM
  TGI: > 100 µM
SNB-75 CNS
  GI50: > 100 µM
  TGI: > 100 µM
SR leukemia
  GI50: 8.14 µM
  TGI: > 100 µM
SW-620 colon
  GI50: > 100 µM
  TGI: > 100 µM
T-47D breast
  GI50: > 100 µM
  TGI: > 100 µM
TK-10 renal
  GI50: > 100 µM
  TGI: > 100 µM
U251 CNS
  GI50: > 100 µM
  TGI: > 100 µM
UACC-257 melanoma
  GI50: > 100 µM
  TGI: > 100 µM
UACC-62 melanoma
  GI50: > 100 µM
  TGI: > 100 µM
UO-31 renal
  GI50: > 100 µM
  TGI: > 100 µM
